Assay results taken from a compilation of properties of binary mixtures (doi:10.1007/s10973-016-5820-0).

Assay: xn = mol fraction of the nth substance listed
Conditions: 100 kPa

O=C1CCCCC1 + CCCC[n+]1ccn(C)c1.F[B-](F)(F)F
speed of sound [m/s]
Conditions	293.15 K	298.15 K	303.15 K	308.15 K
x2 = 0	1431.2	–	1395.1	1375.1
x2 = 0.0736	1425.9	1409.5	1390.7	–
x2 = 0.1128	1424.7	1408.5	–	–
x2 = 0.1597	1424.6	–	1390.2	1371.2
x2 = 0.2045	–	1409.9	1391.8	1373
x2 = 0.2459	–	1412.1	1394.2	1375.6
x2 = 0.2933	1431.3	–	–	1379.7
x2 = 0.3481	1436.6	1421.1	1403.7	–
x2 = 0.3956	1442.2	1426.9	1409.8	1392
x2 = 0.4429	1448.6	1433.5	1416.7	1399.3
x2 = 0.4937	1456.5	1441.6	1425.2	1408.1
x2 = 0.5344	1463.5	1448.7	1432.6	1415.8
x2 = 0.5938	1474.6	1460.1	1444.5	1428.2
x2 = 0.6557	1487.3	1473.1	–	1442.4
x2 = 0.7028	1497.8	1483.8	1469.3	1454
x2 = 0.7409	1506.7	1493	–	–
x2 = 0.7973	1520.6	1507.2	1493.7	1479.5
x2 = 0.8564	1536.1	1523	1510.2	1496.7
x2 = 0.9047	1549.6	1536.7	1524.4	–

CCCC[n+]1ccn(C)c1.F[B-](F)(F)F + O=C1CCCCC1
x1 = 1
Conditions	speed of sound [m/s]
293.15 K	1578.1
298.15 K	1565.5
303.15 K	1554.1
308.15 K	1542.3
